How the values were obtained:
Assay type in all cases: cell-based, human
MJ cells = experiment: Caspase-3 induction in MJ cells; conditions: 10.0 uM, 24 hours
Method: (§1) HH, HuT78 and MJ cells were treated with vehicle alone or WP1220 for 24 hours. Total caspase-3 and cleaved caspase-3 levels were measured in 15 ug lysates by a meso-Scale 2400 imager. Results represent means fold stimulations compared to the controls based on duplicate samples (+++++=15-25 fold; ++++=10-15 fold; +++=5-10 fold; =/−=less than 2 fold.

HuT78 Cells = experiment: Caspase-3 and PARP cleavage in HuT78 cells
Method: (§2) To determine whether IFN alpha and beta were able to selectively phosphorylate STAT3 in other cell types. Studies were conducted in a range of other biologically relevant cell types. In these experiments, cells were grown in media supplemented with 10% FBS, and then serum starved for 18 hours and exposed to various stimuli for 30 minutes. […] (FIG. 10), and induced caspase-3 and PARP cleavage in these cells (Table E5)
as §1

[1] = test system: HuT78 and HH CTCL cell lines; experiment: In vitro growth of CTCL cell lines
HH cells = experiment: Caspase-3 and PARP cleavage in HH cells
Method: as §2, §1

[2] = test system: STAT3 in HaCaT keratinocytes; experiment: pSTAT3 level in HaCaT keratinocytes (MSD chemiluminescent detection); conditions: pre-incubated
Method: Prior to experiments, the DMEM medium was changed to KGM-SFM containing rEGF and bovine pituitary extract for 12 hours, and the cells then exposed to various stimuli for 30 minutes. Cell lysates were extracted in IP lysis buffer were diluted in MSD extraction buffer and 25 uL of the cell lysate containing 10 ug protein was used in the analysis via chemiluminescent detection (MSD Technology). To test for inhibition by WP1220 (WP), cells were pre-incubated with WP1220 prior to the addition of IFN α.

[3] = test system: STAT3 in HH, HuT78 and MJ CTCL lines; experiment: STAT3 tyrosine 705 phosphorylation in CTCL lines
Method: To determine whether IFN alpha and beta were able to selectively phosphorylate STAT3 in other cell types. Studies were conducted in a range of other biologically relevant cell types. In these experiments, cells were grown in media supplemented with 10% FBS, and then serum starved for 18 hours and exposed to various stimuli for 30 minutes.

## C[C@H](NC(=O)/C(C#N)=C/C=C/c1cccc(Br)n1)c1ccccc1 [WP1220, (2E,4E)-5-(6-bromopyridin-2-yl)-2-cyano-N—((S)-1-phenylethyl)penta-2,4-dienamide]
MJ cells
  induction of caspase-3 activity (fold stimulation compared to controls): +++ (+++=5-10 fold)
HuT78 Cells; 5.0 uM
  Cleaved Caspase: ++++ (++++=60,000-40,000)
  Cleaved PARP: ++++ (++++=7,000-5,000)
HuT78 Cells; 10.0 uM
  Cleaved PARP: +++ (+++=5,000-2000)
HuT78 Cells; 10.0 uM, 24 hours
  induction of caspase-3 activity (fold stimulation compared to controls): ++++ (++++=10-15 fold)
[1]
  in vitro growth: potently inhibiting the in vitro growth
HH cells; 5.0 uM
  Cleaved Caspase: ++++ (++++=60,000-40,000)
  Cleaved PARP: +++++ (+++++=10,000-7,000)
HH cells; 10.0 uM
  Cleaved Caspase: ++++ (++++=60,000-40,000)
  Cleaved PARP: +++ (+++=5,000-2000)
HH cells; 10.0 uM, 24 hours
  induction of caspase-3 activity (fold stimulation compared to controls): +++++ (+++++=15-25 fold)
[2]; IFN α + WP 5 uM
  pSTAT3 signal remaining after WP1220 pre-incubation: +++ (+++=2,000-4,000)
[2]; IFN α + WP 10 uM
  pSTAT3 signal remaining after WP1220 pre-incubation: ++ (++=2,000-1,500)
[2]; IFN α + WP 20 uM
  pSTAT3 signal remaining after WP1220 pre-incubation: + (+=less than 1,500)
[3]; HH cells
  relative level of activated pSTAT3: time dependent decrease
[3]; HH, HuT78, MJ cells (FIG. 8A, B)
  constitutive and interferon stimulated phosphorylation of STAT3: specifically blocked

From patent publication US20130129675A1, “INTERFERON THERAPIES IN COMBINATION WITH BLOCKADE OF STAT3 ACTIVATION” (BOARD OF REGENTS, THE UNIVERSITY OF TEXAS SYSTEM, priority 2009, published 2013)
